experiment: The drug is tested on Eggerthella lenta strain: ATCC25559 for biotransformation. The drug concentrations were measured before and after a 12-h incubation by liquid-chromatography-coupled mass spectrometry (LC–MS); details: 2 µM

Row | SMILES | Bacterial Biotransformation
1 | COc1ccc2c(c1)c(CC(=O)O)c(C)n2C(=O)c1ccc(Cl)cc1 [INDOMETHACIN] | Compound NOT metabolized
2 | CN1CCN(C(=O)O[C@H]2c3nccnc3C(=O)N2c2ccc(Cl)cn2)CC1 [ESZOPICLONE] | Compound NOT metabolized
3 | CCN(CC)CC#CCOC(=O)C(O)(c1ccccc1)C1CCCCC1.Cl (stereo not given) [OXYBUTYNIN CHLORIDE] | Compound NOT metabolized
4 | CCc1nn(CCCN2CCN(c3cccc(Cl)c3)CC2)c(=O)n1CCOc1ccccc1 [NEFAZODONE] | Compound NOT metabolized
5 | Cc1ccc(S(=O)(=O)NC(=O)NN2CC3CCCC3C2)cc1 (stereo not given) [GLICLAZIDE] | Compound NOT metabolized
6 | CCN(CC)CCOC(=O)C1(C2CCCCC2)CCCCC1 [DICYCLOMINE] | Compound metabolized
7 | COc1ccccc1OCC(O)COC(N)=O (stereo not given) [METHOCARBAMOL] | Compound NOT metabolized
8 | CCN(CC)C(=O)C1(c2ccccc2)CC1CN (stereo not given) | Compound NOT metabolized
9 | CO[C@]12C[C@@H](COC(=O)c3cncc(Br)c3)CN(C)[C@@H]1Cc1cn(C)c3cccc2c13 [NICERGOLINE] | Compound NOT metabolized

experiment: The drug is tested on Bacteroides uniformis strain: ATCC8492 for biotransformation. The drug concentrations were measured before and after a 12-h incubation by liquid-chromatography-coupled mass spectrometry (LC–MS); details: 2 µM

Row | SMILES | Bacterial Biotransformation
10 | COc1ccc2c(c1)c(CC(=O)O)c(C)n2C(=O)c1ccc(Cl)cc1 [INDOMETHACIN] | Compound metabolized
11 | CN1CCN(C(=O)O[C@H]2c3nccnc3C(=O)N2c2ccc(Cl)cn2)CC1 [ESZOPICLONE] | Compound NOT metabolized
12 | CCN(CC)CC#CCOC(=O)C(O)(c1ccccc1)C1CCCCC1.Cl (stereo not given) [OXYBUTYNIN CHLORIDE] | Compound metabolized
13 | COc1ccccc1OCC(O)COC(N)=O (stereo not given) [METHOCARBAMOL] | Compound NOT metabolized
14 | CO[C@]12C[C@@H](COC(=O)c3cncc(Br)c3)CN(C)[C@@H]1Cc1cn(C)c3cccc2c13 [NICERGOLINE] | Compound metabolized

experiment: The drug is tested on Anaerococcus hydrogenalis strain: DSM7454 for biotransformation. The drug concentrations were measured before and after a 12-h incubation by liquid-chromatography-coupled mass spectrometry (LC–MS); details: 2 µM

Row | SMILES | Bacterial Biotransformation
15 | COc1ccc2c(c1)c(CC(=O)O)c(C)n2C(=O)c1ccc(Cl)cc1 [INDOMETHACIN] | Compound NOT metabolized
16 | CN1CCN(C(=O)O[C@H]2c3nccnc3C(=O)N2c2ccc(Cl)cn2)CC1 [ESZOPICLONE] | Compound NOT metabolized
17 | CCN(CC)CC#CCOC(=O)C(O)(c1ccccc1)C1CCCCC1.Cl (stereo not given) [OXYBUTYNIN CHLORIDE] | Compound NOT metabolized
18 | CCc1nn(CCCN2CCN(c3cccc(Cl)c3)CC2)c(=O)n1CCOc1ccccc1 [NEFAZODONE] | Compound NOT metabolized
19 | Cc1ccc(S(=O)(=O)NC(=O)NN2CC3CCCC3C2)cc1 (stereo not given) [GLICLAZIDE] | Compound NOT metabolized
20 | CCN(CC)CCOC(=O)C1(C2CCCCC2)CCCCC1 [DICYCLOMINE] | Compound NOT metabolized
21 | CCN(CC)C(=O)C1(c2ccccc2)CC1CN (stereo not given) | Compound NOT metabolized

details: bacteroides eggerthii, 12 h, 2 µM
Description: The drug is tested on Bacteroides eggerthii strain: DSM20697 for biotransformation. The drug concentrations were measured before and after a 12-h incubation by liquid-chromatography-coupled mass spectrometry (LC–MS)

Row | SMILES | Bacterial Biotransformation
22 | COc1ccc2c(c1)c(CC(=O)O)c(C)n2C(=O)c1ccc(Cl)cc1 [INDOMETHACIN] | Compound NOT metabolized
23 | CN1CCN(C(=O)O[C@H]2c3nccnc3C(=O)N2c2ccc(Cl)cn2)CC1 [ESZOPICLONE] | Compound NOT metabolized
24 | CCc1nn(CCCN2CCN(c3cccc(Cl)c3)CC2)c(=O)n1CCOc1ccccc1 [NEFAZODONE] | Compound NOT metabolized
25 | Cc1ccc(S(=O)(=O)NC(=O)NN2CC3CCCC3C2)cc1 (stereo not given) [GLICLAZIDE] | Compound NOT metabolized
26 | CCN(CC)CCOC(=O)C1(C2CCCCC2)CCCCC1 [DICYCLOMINE] | Compound NOT metabolized
27 | COc1ccccc1OCC(O)COC(N)=O (stereo not given) [METHOCARBAMOL] | Compound NOT metabolized
28 | CCN(CC)C(=O)C1(c2ccccc2)CC1CN (stereo not given) | Compound NOT metabolized
29 | CO[C@]12C[C@@H](COC(=O)c3cncc(Br)c3)CN(C)[C@@H]1Cc1cn(C)c3cccc2c13 [NICERGOLINE] | Compound NOT metabolized

details: bacteroides fragilis, 12 h, 2 µM
Description: The drug is tested on Bacteroides fragilis strain: DS-208 for biotransformation. The drug concentrations were measured before and after a 12-h incubation by liquid-chromatography-coupled mass spectrometry (LC–MS)

Row | SMILES | Bacterial Biotransformation
30 | COc1ccc2c(c1)c(CC(=O)O)c(C)n2C(=O)c1ccc(Cl)cc1 [INDOMETHACIN] | Compound metabolized
31 | CCN(CC)CC#CCOC(=O)C(O)(c1ccccc1)C1CCCCC1.Cl (stereo not given) [OXYBUTYNIN CHLORIDE] | Compound NOT metabolized
32 | CCc1nn(CCCN2CCN(c3cccc(Cl)c3)CC2)c(=O)n1CCOc1ccccc1 [NEFAZODONE] | Compound NOT metabolized
33 | Cc1ccc(S(=O)(=O)NC(=O)NN2CC3CCCC3C2)cc1 (stereo not given) [GLICLAZIDE] | Compound NOT metabolized
34 | CCN(CC)CCOC(=O)C1(C2CCCCC2)CCCCC1 [DICYCLOMINE] | Compound NOT metabolized
35 | COc1ccccc1OCC(O)COC(N)=O (stereo not given) [METHOCARBAMOL] | Compound NOT metabolized
36 | CCN(CC)C(=O)C1(c2ccccc2)CC1CN (stereo not given) | Compound NOT metabolized
37 | CO[C@]12C[C@@H](COC(=O)c3cncc(Br)c3)CN(C)[C@@H]1Cc1cn(C)c3cccc2c13 [NICERGOLINE] | Compound NOT metabolized

details: bacteroides thetaiotaomicron, 12 h, 2 µM
Description: The drug is tested on Bacteroides thetaiotaomicron strain: 7330 for biotransformation. The drug concentrations were measured before and after a 12-h incubation by liquid-chromatography-coupled mass spectrometry (LC–MS)

Row | SMILES | Bacterial Biotransformation
38 | COc1ccc2c(c1)c(CC(=O)O)c(C)n2C(=O)c1ccc(Cl)cc1 [INDOMETHACIN] | Compound metabolized
39 | CN1CCN(C(=O)O[C@H]2c3nccnc3C(=O)N2c2ccc(Cl)cn2)CC1 [ESZOPICLONE] | Compound NOT metabolized
40 | CCN(CC)CC#CCOC(=O)C(O)(c1ccccc1)C1CCCCC1.Cl (stereo not given) [OXYBUTYNIN CHLORIDE] | Compound NOT metabolized
41 | CCc1nn(CCCN2CCN(c3cccc(Cl)c3)CC2)c(=O)n1CCOc1ccccc1 [NEFAZODONE] | Compound NOT metabolized
42 | Cc1ccc(S(=O)(=O)NC(=O)NN2CC3CCCC3C2)cc1 (stereo not given) [GLICLAZIDE] | Compound NOT metabolized
43 | CCN(CC)CCOC(=O)C1(C2CCCCC2)CCCCC1 [DICYCLOMINE] | Compound NOT metabolized
44 | COc1ccccc1OCC(O)COC(N)=O (stereo not given) [METHOCARBAMOL] | Compound NOT metabolized
45 | CCN(CC)C(=O)C1(c2ccccc2)CC1CN (stereo not given) | Compound NOT metabolized
46 | CO[C@]12C[C@@H](COC(=O)c3cncc(Br)c3)CN(C)[C@@H]1Cc1cn(C)c3cccc2c13 [NICERGOLINE] | Compound NOT metabolized

details: victivallis vadensis, 12 h, 2 µM
Description: The drug is tested on Victivallis vadensis strain: ATCC BAA-548 for biotransformation. The drug concentrations were measured before and after a 12-h incubation by liquid-chromatography-coupled mass spectrometry (LC–MS)

Row | SMILES | Bacterial Biotransformation
47 | COc1ccc2c(c1)c(CC(=O)O)c(C)n2C(=O)c1ccc(Cl)cc1 [INDOMETHACIN] | Compound NOT metabolized
48 | CN1CCN(C(=O)O[C@H]2c3nccnc3C(=O)N2c2ccc(Cl)cn2)CC1 [ESZOPICLONE] | Compound NOT metabolized
49 | CCN(CC)CC#CCOC(=O)C(O)(c1ccccc1)C1CCCCC1.Cl (stereo not given) [OXYBUTYNIN CHLORIDE] | Compound NOT metabolized
50 | CCc1nn(CCCN2CCN(c3cccc(Cl)c3)CC2)c(=O)n1CCOc1ccccc1 [NEFAZODONE] | Compound NOT metabolized
51 | Cc1ccc(S(=O)(=O)NC(=O)NN2CC3CCCC3C2)cc1 (stereo not given) [GLICLAZIDE] | Compound NOT metabolized
52 | CCN(CC)CCOC(=O)C1(C2CCCCC2)CCCCC1 [DICYCLOMINE] | Compound NOT metabolized
53 | COc1ccccc1OCC(O)COC(N)=O (stereo not given) [METHOCARBAMOL] | Compound NOT metabolized
54 | CCN(CC)C(=O)C1(c2ccccc2)CC1CN (stereo not given) | Compound NOT metabolized
55 | CO[C@]12C[C@@H](COC(=O)c3cncc(Br)c3)CN(C)[C@@H]1Cc1cn(C)c3cccc2c13 [NICERGOLINE] | Compound NOT metabolized
